# Laboratory results as given in patent publication US12208089B2, “Adjusting expression level of a gene encoding a Sirtuin protein by treating a human subject with a nitroxide” (priority 2021, dated 2025).
# Test system: SIRT2
# Experiment: Effects of Tempol on gene expression in cardiac tissue of mice, chip-based microarray
# Type: in vivo
# Settings: 5 mg/g of food from 14 to 31 months after birth
# Procedure: To assess the effects of Tempol on gene expression, Tempol was administered to experimental mice at a dose of 5 mg/g of food from 14 months to 31 months after birth. Mice receiving the same food without the addition of Tempol were used as a negative control. At the age of 31 months, the experimental animals were sacrificed and the hearts were surgically removed. The expression of a broad spectrum of genes in the cardiac tissue was assessed using chip-based microarray technology. Such chips are well known in the art and are widely used to assess gene expression.
smiles,measurement,setting,value
"CC1(C)CC(O)CC(C)(C)N1[O] [Tempol, 4-hydroxy-2,2,6,6-tetramethylpiperidine-1-oxyl]",Fold change (SIRT2 expression in cardiac tissue after Tempol administration),"hearts at 31 months, vs. same food without Tempol, P-value 0.00",1.16
same,SIRT2 expression in the cardiac tissue,"microarray, vs. negative control",statistically significant increase in expression
